Reference: patent US20090093541A1, “MELANIN ELIMINATOR PREPARATION” (OGA RESEARCH, INC, priority 2002, published 2009)

Columns and labels:
[1] = test system: lentigo (1-mm diameter) on the arm; assay: Test Example 5: topical application to a lentigo on the arm; type: in vivo, human; conditions: topically applied twice daily, preparation according to Preparation Example 1, two months later
Procedure: To a lentigo (1-mm diameter) on the arm was topically applied twice daily a preparation that was prepared according to Preparation Example 1 except that N-(6,8-dimercaptooctanoyl)histidine sodium/zinc chelate of Example 2 was used instead of N-(6,8-dimercaptooctanoyl)anthranilic acid sodium/zinc chelate of Example 2.

[2] = test system: blotches and lentigines; assay: Lotion applied to blotches and lentigines (general description); type: in vivo, human; conditions: lotion containing 0.5 (w/w)%; applied one or two times daily; about one month
Excerpt: The effect was also noted on blotches formed on the acne scars, showing clear difference compared with the pre-treatment conditions.

Row | Substance | elimination of black color of lentigo [1] | melanin eliminating effect on blotches and lentigines (fading from black to pale umber or falling off as a scab) [2]
1 | N-(6,8-dimercaptooctanoyl)histidine sodium/zinc chelate compound [Example 2] | the black color was found eliminated leaving a subtle scar behind | 
2 | N-(6,8-dimercaptooctanoyl)anthranilic acid sodium/zinc chelate compound [Reference Example 8] |  | satisfactory effects
3 | N-(6,8-dimercaptooctanoyl)-3-aminopropionic acid sodium/zinc chelate compound [Example 10] |  | satisfactory effects
